Reference: ChEMBL document CHEMBL6096740, “Discovery and Optimization of a Series of Novel Morpholine-Containing USP1 Inhibitors” (J Med Chem, 2025)

Columns and labels:
[1] = Metabolic stability in dog liver microsome assessed as half life preincubated for 5 mins followed by NADPH addition and measured after 120 mins by LC-MS/MS analysis; assay type: ADME, Canis lupus familiaris; conditions: liver microsomes, time 125 min
[2] = Tmax in ICR mouse at 10 mg/kg, po measured up to 24 hrs; assay type: ADME, organism-based; conditions: in vivo
[3] = AUC (0 to infinity) in ICR mouse at 10 mg/kg, po measured up to 24 hrs; assay type: ADME, organism-based; conditions: in vivo
[4] = Metabolic stability in monkey liver microsome assessed as half life preincubated for 5 mins followed by NADPH addition and measured after 120 mins by LC-MS/MS analysis; assay type: ADME, Macaca mulatta; conditions: rhesus monkey, liver microsomes; time 125 min
[5] = Metabolic stability in rat liver microsome assessed as half life preincubated for 5 mins followed by NADPH addition and measured after 120 mins by LC-MS/MS analysis; assay type: ADME; conditions: liver microsomes, time 125 min
[6] = Cmax in ICR mouse at 10 mg/kg, po measured up to 24 hrs; assay type: ADME, organism-based; conditions: in vivo
[7] = Metabolic stability in mouse liver microsome assessed as intrinsic clearance preincubated for 5 mins followed by NADPH addition and measured after 120 mins by LC-MS/MS analysis; assay type: ADME; conditions: liver microsomes, time 125 min, read-out: CLH
[8] = Half life in ICR mouse at 10 mg/kg, po measured up to 24 hrs; assay type: ADME, organism-based; conditions: in vivo
[9] = AUC (0 to t) in ICR mouse at 10 mg/kg, po measured up to 24 hrs; assay type: ADME, organism-based; conditions: in vivo
[10] = Metabolic stability in human liver microsome assessed as intrinsic clearance preincubated for 5 mins followed by NADPH addition and measured after 120 mins by LC-MS/MS analysis; assay type: ADME; conditions: liver microsomes, time 125 min, read-out: CLH
[11] = Metabolic stability in mouse liver microsome assessed as half life preincubated for 5 mins followed by NADPH addition and measured after 120 mins by LC-MS/MS analysis; assay type: ADME; conditions: liver microsomes, time 125 min
[12] = Metabolic stability in human liver microsome assessed as half life preincubated for 5 mins followed by NADPH addition and measured after 120 mins by LC-MS/MS analysis; assay type: ADME; conditions: liver microsomes, time 125 min
[13] = Metabolic stability in dog liver microsome assessed as intrinsic clearance preincubated for 5 mins followed by NADPH addition and measured after 120 mins by LC-MS/MS analysis; assay type: ADME, Canis lupus familiaris; conditions: liver microsomes, time 125 min, read-out: CLH
[14] = Metabolic stability in monkey liver microsome assessed as intrinsic clearance preincubated for 5 mins followed by NADPH addition and measured after 120 mins by LC-MS/MS analysis; assay type: ADME, Macaca mulatta; conditions: rhesus monkey, liver microsomes; time 125 min; read-out: CLH
[15] = Metabolic stability in rat liver microsome assessed as intrinsic clearance preincubated for 5 mins followed by NADPH addition and measured after 120 mins by LC-MS/MS analysis; assay type: ADME; conditions: liver microsomes, time 125 min, read-out: CLH

A half-life [1] of 115 min, a Tmax [2] of 15 min and an AUC(0-inf) [3] of 14200 ng·h/mL were found for `COc1ncnc(C2CC2)c1-c1nc(N2CCOC[C@H]2c2ccc(-c3nc(C(F)(F)F)cn3C(C)C)cc2)c2occc2n1` in this work. The half-life [4] was 59.8 min, the half-life [5] was over 120 min and the Cmax [6] was 3510 ng/mL. The CLint scaled [7] was 90.8 mL/min/kg, the half-life [8] was 115 min and the AUC(0-t) at 24 h [9] was 13300 ng·h/mL. It also gave a CLint scaled [10] of 20.3 mL/min/kg, a half-life [11] of 60.1 min and a half-life [12] of 85.7 min. It also gave a CLint scaled [13] of 30 mL/min/kg, a CLint scaled [14] of 33.9 mL/min/kg and a CLint scaled [15] of under 20.7 mL/min/kg.
